# Earlier results, collected in PubChem BioAssay AID1259409 (Chemical Carcinogenesis Research Information System (CCRIS), 2018).
# Tested on: rodent chemically induced tumor inhibition, incidence and multiplicity
# Assay: CCRIS tumor inhibitor studies
# Details: Carcinogen: 7,12-DIMETHYLBENZ[A]ANTHRACENE, 57-97-6
compound,measurement,setting,value
CC1=C(/C=C/C(C)=C/C=C/C(C)=C/C(=O)O)C(C)(C)CCC1,"tumour outcome (control, treated, inhibition, significance)","Dose [Inhibitor]: 0, 2 NMOL IN 200 µL ACETONE APPLIED 30 MIN PRIOR TO EACH PROMOTER DOSE 2/WK FOR 25 WK BEGINNING 1 WK POST CARCINOGEN DOS, Route [Inhibitor]: DERMAL, Species: MOUSE, Strain/Sex: CD-1/FEMALE, Target Tissue: Type of Lesion: SKIN: PAPILLOMA, Dose [Carcinogen]: 200 NMOL IN 200 µL ACETONE ONCE, Promoter: 12-O-TETRADECANOYLPHORBOL-13-ACETATE, 16561-29-8","90%, 83%, 8%, not calculated"
same,"tumour outcome (control, treated, inhibition, significance)","Dose [Inhibitor]: 0, 2 NMOL IN 200 µL ACETONE APPLIED 30 MIN PRIOR TO EACH PROMOTER DOSE 2/WK FOR 25 WK BEGINNING 1 WK POST CARCINOGEN DOS, Route [Inhibitor]: DERMAL, Species: MOUSE, Strain/Sex: CD-1/FEMALE, Target Tissue: Type of Lesion: SKIN: PAPILLOMA, Dose [Carcinogen]: 200 NMOL IN 200 µL ACETONE ONCE, Promoter: MIREX, 2385-85-5","100%, 100%, 0%, not significant"
same,"tumour outcome (control, treated, inhibition, significance)","Dose [Inhibitor]: 0, 3 NMOL IN 0.1 ML ACETONE 2/WK APPLIED 40 MIN PRIOR TO EACH PROMOTER DOSE FOR 20 WK (STUDY DURATION: 21 WK), Route [Inhibitor]: DERMAL, Species: MOUSE, Strain/Sex: ICR/FEMALE, Target Tissue: Type of Lesion: SKIN: PAPILLOMA, Dose [Carcinogen]: 100 UG IN 0.1 ML ACETONE ONCE, Promoter: 12-0-TETRADECANOYLPHORBOL-13-ACETATE, 16561-29-8","99%, 68%, 31%, p<0.01"
same,"tumour outcome (control, treated, inhibition, significance)","Dose [Inhibitor]: 0, 5 NMOL IN 200 µL ACETONE APPLIED 30 MIN PRIOR TO EACH PROMOTER DOSE 2/WK FOR 25 WK BEGINNING 1 WK POST CARCINOGEN DOS, Route [Inhibitor]: DERMAL, Species: MOUSE, Strain/Sex: CD-1/FEMALE, Target Tissue: Type of Lesion: SKIN: PAPILLOMA, Dose [Carcinogen]: 200 NMOL IN 200 µL ACETONE ONCE, Promoter: 12-O-TETRADECANOYLPHORBOL-13-ACETATE, 16561-29-8","90%, 76%, 16%, not calculated"
same,"tumour outcome (control, treated, inhibition, significance)","Dose [Inhibitor]: 0, 5 NMOL IN 200 µL ACETONE APPLIED 30 MIN PRIOR TO EACH PROMOTER DOSE 2/WK FOR 25 WK BEGINNING 1 WK POST CARCINOGEN DOS, Route [Inhibitor]: DERMAL, Species: MOUSE, Strain/Sex: CD-1/FEMALE, Target Tissue: Type of Lesion: SKIN: PAPILLOMA, Dose [Carcinogen]: 200 NMOL IN 200 µL ACETONE ONCE, Promoter: MIREX, 2385-85-5","100%, 100%, 0%, not significant"
same,"tumour outcome (control, treated, inhibition, significance)","Dose [Inhibitor]: 0, 10 UG IN 0.2 ML ACETONE 1/WK FOR 5 WK APPLIED 60 MIN PRIOR TO EACH PROMOTER DOSE BEGINNING 1 WK POST CARCINOGEN DOSE, Route [Inhibitor]: DERMAL, Species: MOUSE, Strain/Sex: SENCAR/FEMALE, Target Tissue: Type of Lesion: SKIN: PAPILLOMA, Dose [Carcinogen]: 20 UG IN 0.2 ML ACETONE ONCE, Promoter: 12-O-TETRADECANOYLPHORBOL-13-ACETATE, 16561-29-8","50%, 10%, 80%, p<0.0001"
same,"tumour outcome (control, treated, inhibition, significance)","Dose [Inhibitor]: 0, 10 UG IN 0.2 ML ACETONE 1/WK FOR 20 WK APPLIED 60 MIN PRIOR TO EACH PROMOTER DOSE BEGINNING 1 WK POST CARCINOGEN DOSE, Route [Inhibitor]: DERMAL, Species: MOUSE, Strain/Sex: SENCAR/FEMALE, Target Tissue: Type of Lesion: SKIN: PAPILLOMA, Dose [Carcinogen]: 20 UG IN 0.2 ML ACETONE ONCE, Promoter: 12-O-TETRADECANOYLPHORBOL-13-ACETATE, 16561-29-8","95%, 55%, 42%, p<0.05"
same,"tumour outcome (control, treated, inhibition, significance)","Dose [Inhibitor]: 0, 10 UG IN 0.2 ML ACETONE 2/WK FOR 19 WK BEGINNING 15 WK POST PROMOTION TREATMENT (STUDY DURATION: 49 WK), Route [Inhibitor]: DERMAL, Species: MOUSE, Strain/Sex: SENCAR/FEMALE, Target Tissue: Type of Lesion: SKIN: CARCINOMA, Dose [Carcinogen]: 20 UG IN 0.2 ML ACETONE ONCE, Promoter: 12-O-TETRADECANOYLPHORBOL-13-ACETATE, 16561-29-8","99%, 54%, 45%, p<0.01"
same,"tumour outcome (control, treated, inhibition, significance)","Dose [Inhibitor]: 0, 10 UG IN 0.2 ML ACETONE 2/WK FOR 19 WK BEGINNING POST PROMOTION TREATMENT (STUDY DURATION: 49 WK), Route [Inhibitor]: DERMAL, Species: MOUSE, Strain/Sex: SENCAR/FEMALE, Target Tissue: Type of Lesion: SKIN: CARCINOMA, Dose [Carcinogen]: 20 UG IN 0.2 ML ACETONE ONCE, Promoter: 12-O-TETRADECANOYLPHORBOL-13-ACETATE, 16561-29-8","88%, 52%, 41%, p<0.01"
same,"tumour outcome (control, treated, inhibition, significance)","Dose [Inhibitor]: 0, 10 UG IN 0.2 ML ACETONE 2/WK FOR 19 WK BEGINNING POST PROMOTION TREATMENT (STUDY DURATION: 49 WK), Route [Inhibitor]: DERMAL, Species: MOUSE, Strain/Sex: SENCAR/FEMALE, Target Tissue: Type of Lesion: SKIN: CARCINOMA, Dose [Carcinogen]: 20 UG IN 0.2 ML ACETONE ONCE, Promoter: MEZEREIN, 34807-41-5","100%, 65%, 35%, p<0.01"
same,"tumour outcome (control, treated, inhibition, significance)","Dose [Inhibitor]: 0, 10 UG IN 0.2 ML ACETONE 2/WK FOR 20 WK APPLIED 60 MIN PRIOR TO EACH PROMOTER DOSE BEGINNING 1 WK POST CARCINOGEN DOSE, Route [Inhibitor]: DERMAL, Species: MOUSE, Strain/Sex: SENCAR/FEMALE, Target Tissue: Type of Lesion: SKIN: PAPILLOMA, Dose [Carcinogen]: 20 UG IN 0.2 ML ACETONE ONCE, Promoter: MEZEREIN, 34807-41-5","86%, 56%, 35%, p<0.05"
same,"tumour outcome (control, treated, inhibition, significance)","Dose [Inhibitor]: 0, 30 UG/G OF DIET FOR DURATION OF STUDY (STUDY DURATION: 35 WK), Route [Inhibitor]: ORAL, Species: MOUSE, Strain/Sex: SENCAR/FEMALE, Target Tissue: Type of Lesion: SKIN: PAPILLOMA, Dose [Carcinogen]: 25.5 UG IN 0.2 ML ACETONE 1/WK FOR 20 WK, Promoter: NONE USED","100%, 90%, 10%, not significant (at 20 wk)"
same,"tumour outcome (control, treated, inhibition, significance)","Dose [Inhibitor]: 0, 30 UG/G OF DIET FOR DURATION OF STUDY (STUDY DURATION: 35 WK), Route [Inhibitor]: ORAL, Species: RAT, Strain/Sex: SENCAR/FEMALE, Target Tissue: Type of Lesion: SKIN: CARCINOMA, Dose [Carcinogen]: 25.5 UG IN 0.2 ML ACETONE 1/WK FOR 20 WK, Promoter: NONE USED","24%, 19%, 21%, not significant"
same,"tumour outcome (control, treated, inhibition, significance)","Dose [Inhibitor]: 0, 30 UG/G OF DIET FOR DURATION OF STUDY (STUDY DURATION: 40 WK), Route [Inhibitor]: ORAL, Species: MOUSE, Strain/Sex: SENCAR/FEMALE, Target Tissue: Type of Lesion: SKIN: CARCINOMA, Dose [Carcinogen]: 20 UG IN 0.2 ML OF ACETONE ONCE, Promoter: 12-O-TETRADECANOYLPHORBOL-13-ACETATE, 16561-29-8","30%, 11%, 63%, p=0.027"
same,"tumour outcome (control, treated, inhibition, significance)","Dose [Inhibitor]: 0, 30 UG/G OF DIET FOR DURATION OF STUDY (STUDY DURATION: 40 WK), Route [Inhibitor]: ORAL, Species: MOUSE, Strain/Sex: SENCAR/FEMALE, Target Tissue: Type of Lesion: SKIN: CARCINOMA, Dose [Carcinogen]: 20 UG IN 0.2 ML OF ACETONE ONCE, Promoter: MEZEREIN, 34807-41-5","31%, 5%, 84%, p=0.002"
same,"tumour outcome (control, treated, inhibition, significance)","Dose [Inhibitor]: 1.7 NMOL IN 0.2 ML ACETONE 1 HR PRIOR TO EACH PROMOTER DOSE FOR 12 WK (STUDY DURATION: 14 WK), Route [Inhibitor]: DERMAL, Species: MOUSE, Strain/Sex: SENCAR/FEMALE, Target Tissue: Type of Lesion: SKIN: PAPILLOMA, Dose [Carcinogen]: 200 NMOL IN 0.2 ML ACETONE ONCE, Promoter: 12-O-TETRADECANOYLPHORBOL-13-ACETATE, 16561-29-8","100%, 100%, 0%, not calculated"
same,"tumour outcome (control, treated, inhibition, significance)","Dose [Inhibitor]: 1.7 NMOL IN 0.2 ML ACETONE 1 HR PRIOR TO EACH PROMOTER DOSE FOR 20 WK (STUDY DURATION: 22 WK), Route [Inhibitor]: DERMAL, Species: MOUSE, Strain/Sex: CD-1/FEMALE, Target Tissue: Type of Lesion: SKIN: PAPILLOMA, Dose [Carcinogen]: 200 NMOL IN 0.2 ML ACETONE ONCE, Promoter: 12-O-TETRADECANOYLPHORBOL-13-ACETATE, 16561-29-8","94%, 80%, 15%, not calculated"
same,"tumour outcome (control, treated, inhibition, significance)","Dose [Inhibitor]: 1.7 NMOL IN 0.2 ML ACETONE 2/WK 1 HR BEFORE EACH PROMOTER APPLICATION STARTING 14 D AFTER CARCINOGEN APPLICATION AND CON, Route [Inhibitor]: DERMAL, Species: MOUSE, Strain/Sex: CD-1/FEMALE, Target Tissue: Type of Lesion: SKIN: PAPILLOMA, Dose [Carcinogen]: 0.2 UMOL IN 0.2 ML ACETONE ONCE, Promoter: 12-O-TETRADECANOYLPHORBOL-13-ACETATE, 16561-29-8","100%, 90%, 10%, not significant"
same,"tumour outcome (control, treated, inhibition, significance)","Dose [Inhibitor]: 3, 30 UG IN DIET FOR DURATION OF STUDY (STUDY DURATION: 44 WK), Route [Inhibitor]: ORAL, Species: MOUSE, Strain/Sex: SENCAR/FEMALE, Target Tissue: Type of Lesion: SKIN: PAPILLOMA, Dose [Carcinogen]: 20 UG IN 0.2 ML ACETONE ONCE, Promoter: 12-O-TETRADECANOYLPHORBOL-13-ACETATE, 16561-29-8","100%, 100%, 0%, not significant"
same,"tumour outcome (control, treated, inhibition, significance)","Dose [Inhibitor]: 3, 30 UG/G OF DIET FOR DURATION OF STUDY BEGINNING POST CARCINOGEN DOSE (STUDY DURATION: 40 WK), Route [Inhibitor]: ORAL, Species: MOUSE, Strain/Sex: SENCAR/FEMALE, Target Tissue: Type of Lesion: SKIN: CARCINOMA, Dose [Carcinogen]: 20 UG IN 0.2 ML ACETONE ONCE AT 7 WK OF AGE, Promoter: 12-O-TETRADECANOYLPHORBOL-13-ACETATE, 16561-29-8","12/38 (32%), 3/30 (10%), 69%, p<0.05"
same,"tumour outcome (control, treated, inhibition, significance)","Dose [Inhibitor]: 3, 30 UG/G OF DIET FOR DURATION OF STUDY BEGINNING POST CARCINOGEN DOSE (STUDY DURATION: 40 WK), Route [Inhibitor]: ORAL, Species: MOUSE, Strain/Sex: SENCAR/FEMALE, Target Tissue: Type of Lesion: SKIN: CARCINOMA, Dose [Carcinogen]: 20 UG IN 0.2 ML ACETONE ONCE AT 7 WK OF AGE, Promoter: MEZEREIN, 34807-41-5","12/39 (31%), 5/40 (13%), 58%, p<0.05"
